# Laboratory results from US10016382B2, “Method for decreasing skeletal muscle damage and/or oxidative stress in mammals” (LONZA INC., priority 2014, dated 2018).
# Experiments:
# [1] = tested on: Labrador Retrievers; experiment: Heart rate and body temperature recovery following 15 mile run, Example 2 part one; type: in vivo, dog; settings: for Temperature After Run: in °F (unit assumed)
# Experimental: Each performance dog wore the Actical activity monitor and GPS tracking collar during the last 15 mile endurance run. The final run was conducted in a manner analogous to that of Example 1. All activity was accurately and precisely calculated using the GPS tracking monitors. Immediately following the 15 mile endurance run, each dog was placed in a kennel and evaluated for recovery time in body temperature (every 15 minutes for 2 hours) and heart rate (every 2 minutes for up to 20 minutes until basal beats per minute (BPM) was reached). Body temperature and heart rate were measured as described in Example 1.
# [2] = tested on: skeletal protein; experiment: Fractional synthesis rate (FSR) of skeletal protein, 15N Phe infusion, Example 2 part two; type: in vivo, dog
# Experimental: At the end of the 60 day training program, 24 of the dogs (12 resting and 12 running) were infused with a bolus dose of 15N Phe. […] Forty-five minutes after infusion, a 5 mm Bergstrom muscle biopsy needle was used to take a biopsy of the biceps femoris muscle. The muscle samples were quickly frozen in liquid nitrogen and placed in a -80° C. freezer for later analysis]. Twenty-four hours after the resting dogs were infused with 15N Phe, the remaining 12 dogs (6 non-carnitine; 3 male and 3 female and 6 L-carnitine; 3 male and 3 female) were run for a 15 mile endurance run. Following a 30 minute period of measured physiological recovery (heart rate and body temperature), test dogs that completed the 15 mile run were infused with a 2% 15N Phe solution as described above; muscle biopsies were taken 45 minutes after infusion. To process the samples, the acid-soluble fraction containing free amino acids was removed by addition of 2% (w/v) perchloric acid. After homogenization, samples were centrifuged at 3,000×g, and the supernatant, containing free amino acids, was removed. The protein precipitate was washed three times with 2% perchloric acid before being hydrolyzed in 6N HCL. The supernatant and precipitate, respectively, were then run through an ion-exchange column packed with Dowex 50WX8-200. Phenylalanine and 3-methylhistidine (3-MH) were eluted with 2 mL of 4N NH4OH and 1 mL of nanopure H2O into a new vial and then dried under vacuum. The tert-butyldimethylsilyl (tBDMS) derivative was formed by adding 800 μL of C2CH3CN-MTBSTFA (1:1) and incubating at 110° C. for 60 minutes. Analysis of the protein precipitate of muscle samples and free amino acids were carried out on an Agilent 7890A GC system attached to an Agilent 6975C mass spectrometer. Helium was used as the carrier gas at 1 mL/min. A 1 μL volume was injected into the GC/MS in splitless mode. Oven temperature began at 150° C. and increased by 50° C./min until reaching 200° C., after which the temperature was increased by 20° C./min until reaching 270° C. The temperature was held at 270° C. for 5.5 minutes. The mass spectrometer was operated under EI and SIM modes. The 394 and 395 m/z fragments, which represented the M and M+1 fragments of phenylalanine, were monitored.
structure (smiles),measurement,setting,value
C[N+](C)(C)C[C@H](O)CC(=O)[O-] [L-carnitine],Heartrate after run,"[1]; Ex.2 part one, 250 mg/d, 4 minutes post final run, both sexes",156.15 BPM
same,Heartrate after run,"[1]; Ex.2 part one, 250 mg/d, 4 minutes post final run, males",160 BPM
same,Heartrate after run,"[1]; Ex.2 part one, 250 mg/d, immediately following 15 mile run, both sexes",184.23 BPM
same,Return to basal temperature vs control (regression model),"[1]; Ex.2 part one, 250 mg/d, males and females, FIGS. 5A, 5B",reached basal temperatures faster
same,Return to basal heart rate vs control (regression model),"[1]; Ex.2 part one, 250 mg/d, overall group, males and females, FIGS. 4A, 4B",reached basal heart rate faster
same,Temperature After Run,"[1]; Females, Temp - 0 min after 15 mile run",105.16 ± 0.35
same,Temperature After Run,"[1]; Females, Temp - 15 min after 15 mile run",102.69 ± 0.24
same,Temperature After Run,"[1]; Females, Temp - 30 min after 15 mile run",101.31 ± 0.2
same,Temperature After Run,"[1]; Females, Temp - 45 min after 15 mile run",101.16 ± 0.2
same,Temperature After Run,"[1]; Females, Temp - 60 min after 15 mile run",101.14 ± 0.2
same,Heartrate After Run,"[1]; Females, Time - 0 min after 15 mile run",180.83 ± 3.36 BPM
same,Heartrate After Run,"[1]; Females, Time - 2 min after 15 mile run",165 ± 6.09 BPM
same,Heartrate After Run,"[1]; Females, Time - 4 min after 15 mile run",152.31 ± 6.71 BPM
same,Heartrate After Run,"[1]; Females, Time - 6 min after 15 mile run",149.17 ± 6.21 BPM
same,Heartrate After Run,"[1]; Females, Time - 8 min after 15 mile run",135 ± 6.34 BPM
same,Heartrate After Run,"[1]; Females, Time - 10 min after 15 mile run",117.9 ± 7.45 BPM
same,Heartrate After Run,"[1]; Females, Time - 12 min after 15 mile run",113.08 ± 8.5 BPM
same,Heartrate After Run,"[1]; Females, Time - 14 min after 15 mile run",107.27 ± 8.95 BPM
same,Heartrate After Run,"[1]; Females, Time - 16 min after 15 mile run",78.57 ± 5.73 BPM
same,Heartrate After Run,"[1]; Females, Time - 18 min after 15 mile run",77.86 ± 5.47 BPM
same,Heartrate After Run,"[1]; Females, Time - 20 min after 15 mile run",77.14 ± 5.29 BPM
same,Temperature After Run,"[1]; Males, Temp - 0 min after 15 mile run",105.79 ± 0.36
same,Temperature After Run,"[1]; Males, Temp - 15 min after 15 mile run",102.39 ± 0.4
same,Temperature After Run,"[1]; Males, Temp - 30 min after 15 mile run",100.94 ± 0.23
same,Temperature After Run,"[1]; Males, Temp - 45 min after 15 mile run",100.87 ± 0.19
same,Temperature After Run,"[1]; Males, Temp - 60 min after 15 mile run",100.87 ± 0.19
same,Heartrate After Run,"[1]; Males, Time - 0 min after 15 mile run",187.14 ± 3.54 BPM
same,Heartrate After Run,"[1]; Males, Time - 2 min after 15 mile run",172.14 ± 3.81 BPM
same,Heartrate After Run,"[1]; Males, Time - 4 min after 15 mile run",160 ± 4.94 BPM
same,Heartrate After Run,"[1]; Males, Time - 6 min after 15 mile run",142.86 ± 5.59 BPM
same,Heartrate After Run,"[1]; Males, Time - 8 min after 15 mile run",129.29 ± 5.29 BPM
same,Heartrate After Run,"[1]; Males, Time - 10 min after 15 mile run",122.86 ± 3.7 BPM
same,Heartrate After Run,"[1]; Males, Time - 12 min after 15 mile run",108.57 ± 3.76 BPM
same,Heartrate After Run,"[1]; Males, Time - 14 min after 15 mile run",95 ± 3.1 BPM
same,Heartrate After Run,"[1]; Males, Time - 16 min after 15 mile run",92.14 ± 3 BPM
same,Heartrate After Run,"[1]; Males, Time - 18 min after 15 mile run",89.29 ± 2.21 BPM
same,Heartrate After Run,"[1]; Males, Time - 20 min after 15 mile run",89.29 ± 2.21 BPM
same,Temperature After Run,"[1]; Whole Groups, Temp - 0 min after 15 mile run",105.48 ± 0.25
same,Temperature After Run,"[1]; Whole Groups, Temp - 15 min after 15 mile run",102.54 ± 0.23
same,Temperature After Run,"[1]; Whole Groups, Temp - 30 min after 15 mile run",101.12 ± 0.15
same,Temperature After Run,"[1]; Whole Groups, Temp - 45 min after 15 mile run",101.01 ± 0.14
same,Temperature After Run,"[1]; Whole Groups, Temp - 60 min after 15 mile run",101.01 ± 0.14
same,Heartrate After Run,"[1]; Whole Groups, Time - 0 min after 15 mile run",184.23 ± 2.49 BPM
same,Heartrate After Run,"[1]; Whole Groups, Time - 2 min after 15 mile run",168.85 ± 3.48 BPM
same,Heartrate After Run,"[1]; Whole Groups, Time - 4 min after 15 mile run",156.15 ± 4.15 BPM
same,Heartrate After Run,"[1]; Whole Groups, Time - 6 min after 15 mile run",145.77 ± 4.12 BPM
same,Heartrate After Run,"[1]; Whole Groups, Time - 8 min after 15 mile run",131.92 ± 4.04 BPM
same,Heartrate After Run,"[1]; Whole Groups, Time - 10 min after 15 mile run",120.79 ± 3.72 BPM
same,Heartrate After Run,"[1]; Whole Groups, Time - 12 min after 15 mile run",110.74 ± 4.46 BPM
same,Heartrate After Run,"[1]; Whole Groups, Time - 14 min after 15 mile run",100.4 ± 4.38 BPM
same,Heartrate After Run,"[1]; Whole Groups, Time - 16 min after 15 mile run",85.36 ± 3.43 BPM
same,Heartrate After Run,"[1]; Whole Groups, Time - 18 min after 15 mile run",83.57 ± 3.1 BPM
same,Heartrate After Run,"[1]; Whole Groups, Time - 20 min after 15 mile run",83.21 ± 3.05 BPM
same,% FSR of skeletal protein vs control,"[2]; Ex.2 part two, 250 mg/d, male or female dogs",did not increase
same,FSR,"[2]; Female, no run",5.04%
same,FSR,"[2]; Female, run",2.54%
same,FSR,"[2]; Male, no run",3.61%
same,FSR,"[2]; Male, run",4.63%
